These results are taken from US20060100170A1, “Isopycnic pharmaceutical formulation” (Agouron Pharmaceuticals, Inc., priority 2004, published 2006).

Data set [1] can be described thus: Drug depot below Tenon's capsule vs below the conjunctiva, retinal drug concentration. Type of data set: in vivo, New Zealand White rabbits. As to conditions: depot on outer surface of the sclera below Tenon's capsule; measured the day after the injection; rabbit eyes. An excerpt: The sclera and Tenon's capsule define the exterior surface of the globe of the eye. For treatment of ARMD, CNV, retinopathies, retinitis, uveitis, cystoid macular edema (CME), glaucoma, and other diseases or conditions of the posterior segment of the eye, it is preferable to dispose a depot of a specific quantity of an ophthalmically acceptable pharmaceutically active agent directly on the outer surface of the sclera and below Tenon's capsule. In addition, in cases of ARMD and CME it is most preferable to dispose the depot directly on the outer surface of the sclera, below Tenon's capsule, and generally above the macula. In a study using New Zealand White rabbits, a drug depot of 4,9(11)-Pregnadien-17α,21-diol-3,20-dione-21-acetate, an angiostatic steroid available from Steraloids, Inc. of Wilton, N.H., was disposed directly on the outer surface of the sclera, below the Tenon's capsule, and slightly posterior of the equator of the rabbit eyes. […] Given the fact that the Tenon's capsule of a New Zealand White rabbit is very thin, these beneficial results are highly unexpected. It is important to note that Tenon's capsule of the human eye is also very thin. […]

Data set [2] in a line: Particle size distribution following jet-milling. It counts as physicochemical. The source says: The pharmaceutical agent is stable following gamma irradiation at 25 kGy and is stable following e-beam irradiation at 25 kGY. The particle size distribution, calculated by means well known in the art, following jet-milling (in microns) is as follows:
d10=0.5; d50=1.5; and d90=3.5; wherein for example, d50 represents 50% of the pharmaceutical agent is 1.5 microns or less in size.

Data set [3] is described as follows: Stability of the drug substance to light, room temperature and irradiation. Type of data set: physicochemical. The source says:
The pharmaceutical agent is stable following gamma irradiation at 25 kGy and is stable following e-beam irradiation at 25 kGY. The particle size distribution, calculated by means well known in the art, following jet-milling (in microns) is as follows: […]

The nature of data set [4]: Sucrose effect on content uniformity in the ready to use (RTU) composition. Type of data set: physicochemical. As to conditions: ready to use composition made with sucrose from different vendors, FIG. 2. An excerpt:
The concentrated sterile aqueous composition preferably comprises sucrose. The concentrated sterile aqueous composition comprises sucrose in an amount sufficient to form a stable aqueous composition of pharmaceutical agent represented by formula 1, typically about 40 to 80 weight percent sucrose based on the total weight of the composition. The concentrated sterile aqueous composition comprises sucrose in an amount ranging from a lower limit of 40, 45, 50, 55 or 60 or 65 weight percent, based on the total weight of the composition, to an upper limit of 70 or 75 or 80 weight percent, based on the total weight of the composition, with ranges from any upper limit to any lower limit being contemplated.
FIG. 2 illustrates the sucrose effect on content uniformity in the ready to use (RTU) composition.
The vertical bars represent 95% Confidence Interval.

Consider `CC(=O)OCC(=O)[C@@]1(O)CC[C@H]2[C@@H]3CCC4=CC(=O)CC[C@]4(C)C3=CC[C@@]21C` [4,9(11)-Pregnadien-17α,21-diol-3,20-dione-21-acetate], for which the “concentration of the angiostatic steroid, averaged over the entire retina, relative to a depot below the conjunctiva but above the Tenon's capsule” value in data set [1] is given as “about ten times greater”.
Regarding `Cc1cc(C(=O)Nc2cc(Nc3ccc4c(/C=C/c5ccccn5)n[nH]c4c3)ccc2F)n(C)n1` [pharmaceutical agent 1], in data set [2], the “particle size d10” value is listed as 0.5 microns, the “particle size d50” value turned out to be 1.5 microns and the “particle size d90” value worked out at 3.5 microns. Also, in data set [3] (drug substance), the light sensitivity result is listed as “light insensitive”. For the same compound, the “stability following e-beam irradiation” value in data set [3] (e-beam irradiation at 25 kGY) is listed as “stable”. Further, the “stability following gamma irradiation” value in data set [3] (gamma irradiation at 25 kGy) is “stable”. In addition, the “stability at room temperature” value in data set [3] (room temperature) was “stable”.
As for `OC[C@H]1O[C@@](CO)(O[C@H]2O[C@H](CO)[C@@H](O)[C@H](O)[C@H]2O)[C@@H](O)[C@@H]1O` [Sigma, S3929 Lot 101K0105, sucrose], the content uniformity entry in data set [4] is “best content uniformity”.
